The values that follow come from ChEMBL document CHEMBL1133364, “Synthesis and activity of selective MMP inhibitors with an aryl backbone” (Bioorg Med Chem Lett, 2000).

Structures are written as SMILES.

The target of experiment [1] is 72 kDa type IV collagenase (Homo sapiens, UniProt P08253).
Experiment [2] concerns the target T1, Interstitial collagenase (Homo sapiens, UniProt P03956).
T1 sequence (P03956 whole entry): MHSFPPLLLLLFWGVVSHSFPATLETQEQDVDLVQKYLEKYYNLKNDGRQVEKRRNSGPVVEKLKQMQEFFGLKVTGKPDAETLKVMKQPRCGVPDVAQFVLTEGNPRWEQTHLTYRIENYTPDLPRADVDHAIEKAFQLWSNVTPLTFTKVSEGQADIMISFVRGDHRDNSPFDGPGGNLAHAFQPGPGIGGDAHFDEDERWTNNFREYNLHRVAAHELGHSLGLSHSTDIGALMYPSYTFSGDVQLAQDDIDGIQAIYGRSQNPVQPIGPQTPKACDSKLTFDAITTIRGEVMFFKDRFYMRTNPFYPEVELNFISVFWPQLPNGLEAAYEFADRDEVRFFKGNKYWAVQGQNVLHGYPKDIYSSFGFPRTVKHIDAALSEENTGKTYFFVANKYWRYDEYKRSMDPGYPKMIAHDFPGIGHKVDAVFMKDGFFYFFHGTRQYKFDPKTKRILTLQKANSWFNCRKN
Nature of the experiment: 50 percent inhibition of human Matrix metalloprotease-1 by the cleavage of fluorogenic peptide MCA-Pro-Leu-Gly-Leu-Dpa-ala-Arg-NH2.

In experiment [3] the target is Collagenase 3 (Homo sapiens, UniProt P45452).

Chain of 72 kDa type IV collagenase (P08253 whole entry): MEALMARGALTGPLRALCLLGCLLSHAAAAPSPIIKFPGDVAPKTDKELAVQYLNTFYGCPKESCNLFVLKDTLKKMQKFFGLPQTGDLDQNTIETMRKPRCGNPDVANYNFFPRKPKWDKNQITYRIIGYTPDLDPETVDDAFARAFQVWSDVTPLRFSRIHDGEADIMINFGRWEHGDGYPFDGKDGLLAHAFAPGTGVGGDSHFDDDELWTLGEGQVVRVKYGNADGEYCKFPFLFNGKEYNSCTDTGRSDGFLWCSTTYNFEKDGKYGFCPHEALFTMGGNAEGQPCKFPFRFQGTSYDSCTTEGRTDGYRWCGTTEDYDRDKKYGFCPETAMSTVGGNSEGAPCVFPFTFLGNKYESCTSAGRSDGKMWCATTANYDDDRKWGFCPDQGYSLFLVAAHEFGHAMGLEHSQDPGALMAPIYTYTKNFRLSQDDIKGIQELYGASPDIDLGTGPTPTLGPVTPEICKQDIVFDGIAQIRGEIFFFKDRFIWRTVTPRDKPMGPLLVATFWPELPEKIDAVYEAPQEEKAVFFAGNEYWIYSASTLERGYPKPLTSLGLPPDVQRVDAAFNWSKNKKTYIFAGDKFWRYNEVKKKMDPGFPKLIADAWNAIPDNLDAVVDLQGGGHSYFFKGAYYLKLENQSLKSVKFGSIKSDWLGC

Take `O=C(NO)c1c(F)cccc1S(=O)(=O)N1CCC(Oc2ccc(C(F)(F)F)cc2)CC1`: the IC50 (commonly the concentration that gives 50% inhibition) in experiment [1] turned out to be 0.0033 µM.

`O=C(NO)c1ccccc1S(=O)(=O)N1CCC(Oc2ccc(OC(F)(F)F)cc2)CC1`: in experiment [1], the IC50 was 0.002 µM.

`O=C(NO)c1ccccc1S(=O)(=O)N1CCC(Oc2ccc(C(F)(F)F)cc2)C1` (stereo not drawn) displayed a 50% inhibitory concentration (IC50) in experiment [2] of more than 10 µM.

As for `O=C(NO)c1ccccc1S(=O)(=O)N1CCC(Oc2ccc(C(F)(F)F)cc2)CC1`, the IC50 in experiment [3] came out at 0.028 µM.

For `O=C(NO)c1ccccc1S(=O)(=O)N1CCC(c2ccccc2)CC1`, the concentration for half-maximal inhibition (IC50) is 0.52 µM in experiment [3] and 0.07 µM in experiment [1].

In turn, `COc1ccc(C(=O)NC2CCN(S(=O)(=O)c3ccccc3C(=O)NO)C2)cc1` (single isomer, unassigned; (-)) came in with an IC50 in experiment [2] of more than 10 µM.

Consider `O=C(NO)C1(CS(=O)(=O)c2ccc(Oc3ccc(Cl)cc3)cc2)CCOCC1` [CTS-1027], for which the IC50 in experiment [2] is 0.8 µM.
